# Source: patent US8338465B2, “Cyclic carboxylic acid rhodanine derivatives for the treatment and prevention of tuberculosis” (priority 2006, dated 2012)
# Target: T1, dihydrolipoamide acyltransferase (DlaT) (Mycobacterium tuberculosis, UniProt P9WIS7)
# T1 sequence (P9WIS7 1-553): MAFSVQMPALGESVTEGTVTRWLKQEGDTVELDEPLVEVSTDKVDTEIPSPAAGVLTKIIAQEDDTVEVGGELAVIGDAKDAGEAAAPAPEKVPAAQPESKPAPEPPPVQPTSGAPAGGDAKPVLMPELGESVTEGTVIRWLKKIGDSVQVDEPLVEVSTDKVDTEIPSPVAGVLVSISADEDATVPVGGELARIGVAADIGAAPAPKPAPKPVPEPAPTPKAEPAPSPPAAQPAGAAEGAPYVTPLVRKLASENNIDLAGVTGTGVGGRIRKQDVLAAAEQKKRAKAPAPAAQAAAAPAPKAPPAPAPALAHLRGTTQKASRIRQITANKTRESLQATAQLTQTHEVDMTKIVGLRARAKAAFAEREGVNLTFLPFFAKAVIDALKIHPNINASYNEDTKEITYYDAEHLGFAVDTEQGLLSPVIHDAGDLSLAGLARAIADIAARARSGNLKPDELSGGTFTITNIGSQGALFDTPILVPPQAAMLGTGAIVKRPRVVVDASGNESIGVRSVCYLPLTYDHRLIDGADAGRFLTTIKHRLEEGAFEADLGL
# Assay: DlaT inhibition (Dlat IC50); DTNB peroxidase assay with Lpd, DlaT and AhpD
# Assay type: biochemical
# Conditions: Dlat IC50 category
row,SMILES,IC50
1,"O=C(O)C1CCCC(N2C(=O)C(=Cc3ccc(-c4ccc(C5CCCCC5)cc4)o3)SC2=S)C1 (stereo not drawn) [Compound C2, 3-{5-[1-[5-(4-cyclohexyl-phenyl)-furan-2-yl]-methylidene]-4-oxo-2-thioxo-thiazolidin-3-yl}-cyclohexanecarboxylic acid]",< 10 µM
2,"CC(C)(C)c1ccc(-c2ccc(C=C3SC(=S)N(C4CCCC(C(=O)O)C4)C3=O)o2)cc1 (stereo not drawn) [Compound C3, 3-{5-[1-[5-(4-tert-butyl-phenyl)-furan-2-yl]-methylidene]-4-oxo-2-thioxo-thiazolidin-3-yl}-cyclohexanecarboxylic acid]",< 10 µM
3,"CC(C)Cc1ccc(-c2ccc(C=C3SC(=S)N(C4CCCC(C(=O)O)C4)C3=O)o2)cc1 (stereo not drawn) [Compound C4, 3-{5-[1-[5-(4-isobutyl-phenyl)-furan-2-yl]methylidene]-4-oxo-2-thioxo-thiazolidin-3-yl}-cyclohexanecarboxylic acid]",< 10 µM
4,"O=C(O)C1CCCC(N2C(=O)C(=Cc3ccc(-c4cccc(C(F)(F)F)c4)o3)SC2=S)C1 (stereo not drawn) [Compound C5, 3-{5-[1-[5-(3-trifluoromethyl-phenyl)-furan-2-yl]-methylidene]-4-oxo-2-thioxo-thiazolidin-3-yl}-cyclohexanecarboxylic acid]",< 10 µM
5,"O=C(O)C1CCCC(N2C(=O)C(=Cc3ccc(-c4ccc(Cc5ccccc5)cc4)o3)SC2=S)C1 (stereo not drawn) [Compound C6, 3-{5-[1-[5-(4-benzyl-phenyl)-furan-2-yl]-methylidene]-4-oxo-2-thioxo-thiazolidin-3-yl}-cyclohexanecarboxylic acid]",< 10 µM
6,"O=C(O)C1CCCC(N2C(=O)C(=Cc3ccc(-c4ccc(F)cc4F)o3)SC2=S)C1 (stereo not drawn) [Compound C7, 3-{5-[1-[5-(2,4-difluoro-phenyl)-furan-2-yl]-methylidene]-4-oxo-2-thioxo-thiazolidin-3-yl}-cyclohexanecarboxylic acid]",< 10 µM
7,"Cc1ccc(-c2ccc(C=C3SC(=S)N(C4CCCC(C(=O)O)C4)C3=O)o2)c(C)c1 (stereo not drawn) [Compound C8, 3-{5-[1-[5-(2,4-dimethyl-phenyl)-furan-2-yl]-methylidene]-4-oxo-2-thioxo-thiazolidin-3-yl}-cyclohexanecarboxylic acid]",< 10 µM
8,"COc1ccc(-c2ccc(C=C3SC(=S)N(C4CCCC(C(=O)O)C4)C3=O)o2)c(C)c1 (stereo not drawn) [Compound C9, 3-{5-[1-[5-(2-methyl-4-methoxy-phenyl)-furan-2-yl]-methylidene]-4-oxo-2-thioxo-thiazolidin-3-yl}-cyclohexanecarboxylic acid]",11 to 40 µM
9,"Cc1ccccc1-c1cccc(C=C2SC(=S)N(C3CCCC(C(=O)O)C3)C2=O)n1 (stereo not drawn) [Compound C10, 3-[4-Oxo-2-thioxo-5-(6-o-tolyl-pyridin-2-ylmethylene)-thiazolidin-3-yl]-cyclohexanecarboxylic acid]",41 to 80 µM
10,"Cc1cc(F)ccc1-c1ccc(C=C2SC(=S)N(C3CCCC(C(=O)O)C3)C2=O)o1 (stereo not drawn) [Compound C11, 3-{5-[1-[5-(2-methyl-4-fluoro-phenyl)-furan-2-yl]-methylidene]-4-oxo-2-thioxo-thiazolidin-3-yl}-cyclohexanecarboxylic acid]",< 10 µM
11,"Cc1ccc(-c2ccc(C=C3SC(=S)N(C4CCCC(C(=O)O)C4)C3=O)o2)c(F)c1 (stereo not drawn) [Compound C12, 3-{5-[1-[5-(2-fluoro-4-methyl-phenyl)-furan-2-yl]-methylidene]-4-oxo-2-thioxo-thiazolidin-3-yl}-cyclohexanecarboxylic acid]",< 10 µM
12,"O=C(O)C1CCCC(N2C(=O)C(=Cc3ccc(-c4ccccc4O)o3)SC2=S)C1 (stereo not drawn) [Compound C13, 3-{5-[1-[5-(2-hydroxy-phenyl)-furan-2-yl]-methylidene]-4-oxo-2-thioxo-thiazolidin-3-yl}-cyclohexanecarboxylic acid]",< 10 µM
13,"Cc1ccc(-c2ccc(C=C3SC(=S)N(C4CCCC(C(=O)O)C4)C3=O)o2)cc1 (stereo not drawn) [Compound C14, 3-{4-oxo-2-thioxo-5-[1-(5-p-tolyl-furan-2-yl)-methylidene]-thiazolidin-3-yl}-cyclohexanecarboxylic acid]",< 10 µM
14,"COc1ccc(-c2ccc(C=C3SC(=S)N(C4CCCC(C(=O)O)C4)C3=O)o2)cc1 (stereo not drawn) [Compound C15, 3-{5-[1-[5-(4-methoxy-phenyl)-furan-2-yl]-methylidene]-4-oxo-2-thioxo-thiazolidin-3-yl}-cyclohexanecarboxylic acid]",< 10 µM
15,"O=C(O)C1CCC(N2C(=O)C(=Cc3ccc(-c4ccccc4Cl)o3)SC2=S)CC1 (stereo not drawn) [Compound C16, 4-{5-[1-[5-(2-chloro-phenyl)-furan-2-yl]-methylidene]-4-oxo-2-thioxo-thiazolidin-3-yl}-cyclohexanecarboxylic acid]",< 10 µM
16,"O=C(O)C1CCC(N2C(=O)C(=Cc3ccc(-c4cccc(C(F)(F)F)c4)o3)SC2=S)CC1 (stereo not drawn) [Compound C17, 4-{5-[1-[5-(3-trifluoromethyl-phenyl)-furan-2-yl]-methylidene]-4-oxo-2-thioxo-thiazolidin-3-yl}-cyclohexanecarboxylic acid]",< 10 µM
17,"O=C(O)C1CCC(N2C(=O)C(=Cc3ccc(-c4ccc(Cl)cc4)o3)SC2=S)CC1 (stereo not drawn) [Compound C18, 4-{5-[1-[5-(4-chloro-phenyl)-furan-2-yl]-methylidene]-4-oxo-2-thioxo-thiazolidin-3-yl}-cyclohexanecarboxylic acid]",< 10 µM
18,"COc1ccc(-c2ccc(C=C3SC(=S)N(C4CCCC(C(=O)O)C4)C3=O)o2)c(OC)c1 (stereo not drawn) [Compound C19, 3-{5-[1-[5-(2,4-dimethoxy-phenyl)-furan-2-yl]-methylidene]-4-oxo-2-thioxo-thiazolidin-3-yl}-cyclohexanecarboxylic acid]",< 10 µM
19,"Cc1cc(Cl)ccc1-c1ccc(C=C2SC(=S)N(C3CCCC(C(=O)O)C3)C2=O)o1 (stereo not drawn) [Compound C20, 3-{5-[1-[5-(4-chloro-2-methyl-phenyl)-furan-2-yl]-methylidene]-4-oxo-2-thioxo-thiazolidin-3-yl}-cyclohexanecarboxylic acid]",< 10 µM
20,"O=C1C(=Cc2ccc(-c3ccccc3Cl)o2)SC(=S)N1C1CCC(O)CC1 (stereo not drawn) [Compound C21, 5-[1-[5-(2-chloro-phenyl)-furan-2-yl]-methylidene]-3-(4-hydroxy-cyclohexyl)-2-thioxo-thiazolidin-4-one]",11 to 40 µM
21,"O=C1C(=Cc2ccc(-c3ccc(Cl)cc3)o2)SC(=S)N1C1CCC(O)CC1 (stereo not drawn) [Compound C22, 5-[1-[5-(4-chloro-phenyl)-furan-2-yl]-methylidene]-3-(4-hydroxy-cyclohexyl)-2-thioxo-thiazolidin-4-one]",11 to 40 µM
22,"Cc1cccc(C)c1-c1ccc(C=C2SC(=S)N(C3CCCC(C(=O)O)C3)C2=O)o1 (stereo not drawn) [Compound C23, 3-{5-[5-(2,6-Dimethyl-phenyl)-furan-2-ylmethylene]-4-oxo-2-thioxo-thiazolidin-3-yl}-cyclohexanecarboxylic acid]",11 to 40 µM
23,"Cc1ccccc1-c1cccc(C=C2SC(=S)N(C3CCCC(C(=O)O)C3)C2=O)c1 (stereo not drawn) [Compound C24, 3-{5-[1-(2′-methyl-biphenyl-3-yl)-methylidene]-4-oxo-2-thioxo-thiazolidin-3-yl}cyclohexanecarboxylic acid]",11 to 40 µM
24,"COc1cc(F)ccc1-c1ccc(C=C2SC(=S)N(C3CCCC(C(=O)O)C3)C2=O)o1 (stereo not drawn) [Compound C25, 3-{5-[1-[5-(4-fluoro-2-methoxy-phenyl)-furan-2-yl]-methylidene]-4-oxo-2-thioxo-thiazolidin-3-yl}-cyclohexanecarboxylic acid]",< 10 µM
25,"COc1ccc(-c2ccc(C=C3SC(=S)N(C4CCCC(C(=O)O)C4)C3=O)o2)cc1F (stereo not drawn) [Compound C26, 3-{5-[1-[5-(3-fluoro-4-methoxy-phenyl)-furan-2-yl]-methylidene]-4-oxo-2-thioxo-thiazolidin-3-yl}-cyclohexanecarboxylic acid]",< 10 µM
26,"O=C(O)C1CCCC(N2C(=O)C(=Cc3ccc(-c4ccccc4OCc4ccccc4)o3)SC2=S)C1 (stereo not drawn) [Compound C27, 3-{5-[1-[5-(2-benzyloxy-phenyl)-furan-2-yl]-methylidene]-4-oxo-2-thioxo-thiazolidin-3-yl}-cyclohexanecarboxylic acid]",< 10 µM
27,"Cc1cc(C)c(-c2ccc(C=C3SC(=S)N(C4CCCC(C(=O)O)C4)C3=O)o2)c(C)c1 (stereo not drawn) [Compound C28, 3-{4-Oxo-2-thioxo-5-[5-(2,4,6-trimethyl-phenyl)-furan-2-ylmethylene]-thiazolidin-3-yl}-cyclohexanecarboxylic acid]",< 10 µM
28,"Cc1cc(N(C)C)ccc1-c1ccc(C=C2SC(=S)N(C3CCCC(C(=O)O)C3)C2=O)o1 (stereo not drawn) [Compound C29, 3-{5-[5-(4-Dimethylamino-2-methyl-phenyl)-furan-2-ylmethylene]-4-oxo-2-thioxo-thiazolidin-3-yl}-cyclohexanecarboxylic acid]",11 to 40 µM
29,"CSc1ccccc1-c1ccc(C=C2SC(=S)N(C3CCCC(C(=O)O)C3)C2=O)o1 (stereo not drawn) [Compound C30, 3-{5-[1-[5-(2-methylsulfanyl-phenyl)-furan-2-yl]-methylidene]-4-oxo-2-thioxo-thiazolidin-3-yl}-cyclohexanecarboxylic acid]",< 10 µM
30,"Cc1ccccc1-c1ccc(C=C2SC(=S)N(C3CCCC(C(=O)O)C3)C2=O)s1 (stereo not drawn) [Compound C31, 3-{4-oxo-2-thioxo-5-[1-(5-o-tolyl-thiophen-2-yl)-methylidene]-thiazolidin-3-yl}-cyclohexanecarboxylic acid]",11 to 40 µM
